In this test the target is T1, HCV polymerase (Hepatitis C virus genotype 1b, UniProt P26663).
T1 construct: a region encoding NS5B (J Virol 1991 March, 65(3), 1105-13, 544 amino acids after deletion of 47 amino acids on the C-terminal); 6xHis (C); made in house; host or cells: Escherichia coli
As to the kind of experiment: biochemical. Also on record: species or system HCV BK strain. The method in brief: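 His-tagged NS5B (BK strain, 47-aa C-terminal deletion, E. coli-expressed) at 0.5 μg/ml copied 5 μg/ml run-off RNA bearing the HCV 3′ UTR with 2 μM UTP plus [3H]UTP, 50 μM ATP/GTP, in pH 7.5 Tris with 5 mM MgCl2, 25 °C, 90 min. TCA-precipitated RNA was counted and IC50 calculated.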

Setting [1] is: 25° C., 90 min, [5,6-3H]UTP incorporation into RNA, read-out: HCV polymerase inhibitory activity IC50.

pIC50: −log10 of the molar value. Structures can show the parent of a compound that is named as a salt. Where two headings read alike, the source gives them in different places. Where only a bound is given, the exact number is not on record here.

T1 sequence (P26663 2420-2963): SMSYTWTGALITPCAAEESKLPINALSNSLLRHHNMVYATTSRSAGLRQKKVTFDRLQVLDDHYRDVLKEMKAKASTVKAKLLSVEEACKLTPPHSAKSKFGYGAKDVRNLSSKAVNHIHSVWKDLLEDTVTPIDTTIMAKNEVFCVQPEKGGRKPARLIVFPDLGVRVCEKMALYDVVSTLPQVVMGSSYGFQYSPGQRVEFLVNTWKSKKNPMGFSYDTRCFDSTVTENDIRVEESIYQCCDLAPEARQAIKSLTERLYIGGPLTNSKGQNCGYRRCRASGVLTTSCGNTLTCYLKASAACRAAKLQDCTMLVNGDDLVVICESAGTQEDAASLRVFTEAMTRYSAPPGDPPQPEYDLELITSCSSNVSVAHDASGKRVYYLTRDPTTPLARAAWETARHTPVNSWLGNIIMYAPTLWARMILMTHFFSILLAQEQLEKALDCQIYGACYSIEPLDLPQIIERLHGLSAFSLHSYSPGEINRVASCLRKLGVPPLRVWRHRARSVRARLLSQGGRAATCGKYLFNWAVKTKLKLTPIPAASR

With `COC(=O)[C@H](Cc1ccc(OCCCO)cc1)NC(=O)c1ccc2c(C3CCCCC3)c3n(c2c1)CCOc1cc(OC)ccc1-3` [Example 2-392, methyl (S)-2-[(12-cyclohexyl-3-methoxy-6,7-dihydro-5-oxa-7a-azadibenzo[a,e]azulene-9-carbonyl)amino]-3-[4-(3-hydroxypropoxy)phenyl]propionate], the pIC50 is > 7.00. With `CC1CC(C)CN(C(=O)CN2CCn3c(c(C4CCCCC4)c4ccc(C(=O)O)cc43)-c3ccccc32)C1` (centres unmarked) [Example 1-187, 13-cyclohexyl-5-[2-(3,5-dimethylpiperidin-1-yl)-2-oxoethyl]-6,7-dihydro-5H-benzo[5,6][1,4]diazepino[7,1-a]indole-10-carboxylic acid monohydrochloride], the pIC50 is > 7.00. On to `O=C(O)c1ccc2c(C3CCCCC3)c3n(c2c1)CCN(CC[C@H]1CCCN(C2CCCC2)C1)c1cc(Cl)ccc1-3` [Example 1-408, 3-chloro-13-cyclohexyl-5-[2-((R)-1-cyclopentylpiperidin-3-yl)ethyl]-6,7-dihydro-5H-benzo[5,6][1,4]diazepino[7,1-a]indole-10-carboxylic acid dihydrochloride], for which the pIC50 was > 7.00. `CCN(CC)CCCN1CCn2c(c(C3CCCCC3)c3ccc(C(=O)O)cc32)-c2ccc(C)cc21` [Example 1-378, 13-cyclohexyl-5-(3-diethylaminopropyl)-3-methyl-6,7-dihydro-5H-benzo[5,6][1,4]diazepino[7,1-a]indole-10-carboxylic acid dihydrochloride]: the pIC50 was > 7.00. On the same count and under the same terms, as for `COC(=O)N[C@H](COc1ccc2c(c1)OCCn1c-2c(C2CCCCC2)c2ccc(C(=O)O)cc21)Cc1ccccc1` [Example 2-49, 12-cyclohexyl-3-((S)-2-methoxycarbonylamino-3-phenylpropoxy)-6,7-dihydro-5-oxa-7a-azadibenzo[a,e]azulene-9-carboxylic acid], the figure is > 7.00.

On to `CC(C)(C)OC(=O)N1CC[C@H](Oc2ccc3c(c2)OCCn2c-3c(C3CCCCC3)c3ccc(C(=O)O)cc32)C1` [Example 2-40, 3-[(S)-1-(tert-butoxycarbonyl)pyrrolidin-3-yloxy]-12-cyclohexyl-6,7-dihydro-5-oxa-7a-azadibenzo[a,e]azulene-9-carboxylic acid], for which the pIC50 was > 7.00. For `COC(=O)[C@H](Cc1ccc(OCC(=O)OC(C)(C)C)cc1)NC(=O)c1ccc2c(C3CCCCC3)c3n(c2c1)CCOc1cc(OC)ccc1-3` [Example 2-377, methyl (S)-3-(4-tert-butoxycarbonylmethoxyphenyl)-2-[(12-cyclohexyl-3-methoxy-6,7-dihydro-5-oxa-7a-azadibenzo[a,e]azulene-9-carbonyl)amino]propionate], the pIC50 was > 7.00.

Turning to `O=C(O)c1ccc2c(C3CCCCC3)c3n(c2c1)CCOc1c(-c2cccnc2)cccc1-3` [Example 2-298, 12-cyclohexyl-4-(pyridin-3-yl)-6,7-dihydro-5-oxa-7a-azadibenzo[a,e]azulene-9-carboxylic acid hydrochloride], the pIC50 is > 7.00. `CCOc1ccc2c(c1)N(CCN1CCCCCCC1)CCn1c-2c(C2CCCCC2)c2ccc(C(=O)O)cc21` [Example 1-498, 5-[2-(azocan-1-yl)ethyl]-13-cyclohexyl-3-ethoxy-6,7-dihydro-5H-benzo[5,6][1,4]diazepino[7,1-a]indole-10-carboxylic acid monohydrochloride]: under setting [1], the pIC50 was > 7.00.

Turning to `CCOCC1CCCN(CCN2CCn3c(c(C4CCCCC4)c4ccc(C(=O)O)cc43)-c3ccccc32)C1` (centres unmarked) [Example 1-387, 13-cyclohexyl-5-[2-(3-ethoxymethylpiperidin-1-yl)ethyl]-6,7-dihydro-5H-benzo[5,6][1,4]diazepino[7,1-a]indole-10-carboxylic acid dihydrochloride], the pIC50 was > 7.00. For `COC(=O)[C@H](CCc1ccc(O)cc1)NC(=O)c1ccc2c(C3CCCCC3)c3n(c2c1)CCOc1cc(OC)ccc1-3` [Example 2-366, methyl (S)-2-[(12-cyclohexyl-3-methoxy-6,7-dihydro-5-oxa-7a-azadibenzo[a,e]azulene-9-carbonyl)amino]-4-(4-hydroxyphenyl)butyrate], the negative-log IC50 (pIC50) is > 7.00.

On to `CCN1CCN(CCOc2cccc3c2OCCn2c-3c(C3CCCCC3)c3ccc(C(=O)O)cc32)CC1` [Example 2-456, 12-cyclohexyl-4-[2-(4-ethylpiperazin-1-yl)ethoxy]-6,7-dihydro-5-oxa-7a-azadibenzo[a,e]azulene-9-carboxylic acid dihydrochloride], for which the negative-log IC50 (pIC50) was > 7.00. As for `CN(C)CCN1CCn2c(c(C3CCCCC3)c3ccc(C(=O)O)cc32)-c2ccc(OCCCN3CCCCC3)cc21` [Example 1-584, 13-cyclohexyl-5-(2-dimethylaminoethyl)-3-[3-(piperidin-1-yl)propoxy]-6,7-dihydro-5H-benzo[5,6][1,4]diazepino[7,1-a]indole-10-carboxylic acid trihydrochloride], the negative logarithm of the IC50 (pIC50) is > 7.00. For `COC[C@@H]1CCCN(CCN2CCn3c(c(C4CCCCC4)c4ccc(C(=O)O)cc43)-c3ccc(F)cc32)C1` [Example 1-509, 13-cyclohexyl-3-fluoro-5-[2-((R)-3-methoxymethylpiperidin-1-yl)ethyl]-6,7-dihydro-5H-benzo[5,6][1,4]diazepino[7,1-a]indole-10-carboxylic acid dihydrochloride], the pIC50 is > 7.00. Take `CC1CCN(CCN2CCn3c(c(C4CCCCC4)c4ccc(C(=O)O)cc43)-c3ccccc32)C1` (centres unmarked) [Example 1-237, 13-cyclohexyl-5-[2-(3-methylpyrrolidin-1-yl)ethyl]-6,7-dihydro-5H-benzo[5,6][1,4]diazepino[7,1-a]indole-10-carboxylic acid dihydrochloride]: the pIC50 was > 7.00.

In the case of `CCN1CCN(C(=O)CN2CCn3c(c(C4CCCCC4)c4ccc(-c5nn[nH]n5)cc43)-c3ccccc32)CC1` [Example 1-96, 2-[13-cyclohexyl-10-(2H-tetrazol-5-yl)-6,7-dihydrobenzo[5,6][1,4]diazepino[7,1-a]indol-5-yl]-1-(4-ethylpiperazin-1-yl)ethanone], the pIC50 was > 7.00.

Regarding `CCN(CC)CCN1CCn2c(c(C3CCCCC3)c3ccc(C(=O)O)cc32)-c2ccccc21` [Example 1-185, 13-cyclohexyl-5-(2-diethylaminoethyl)-6,7-dihydro-5H-benzo[5,6][1,4]diazepino[7,1-a]indole-10-carboxylic acid dihydrochloride], the pIC50 is > 7.00.

Take `COCC1CCCN(CCN2CCn3c(c(C4CCCCC4)c4ccc(C(=O)O)cc43)-c3ccc(C)cc32)C1` (centres unmarked) [Example 1-294, 13-cyclohexyl-5-[2-(3-methoxymethylpiperidin-1-yl)ethyl]-3-methyl-6,7-dihydro-5H-benzo[5,6][1,4]diazepino[7,1-a]indole-10-carboxylic acid dihydrochloride]: the negative-log IC50 (pIC50) under setting [1] is > 7.00. Turning to `O=C(O)c1ccc2c(C3CCCCC3)c3n(c2c1)CCOc1c(OCCCN2CCCCC2)cccc1-3` [Example 2-460, 12-cyclohexyl-4-[3-(piperidin-1-yl)propoxy]-6,7-dihydro-5-oxa-7a-azadibenzo[a,e]azulene-9-carboxylic acid monohydrochloride], the pIC50 was > 7.00. In turn, `CC(C)(CNCC(=O)O)NC(=O)c1ccc2c(C3CCCCC3)c3n(c2c1)CCOc1ccccc1-3` [Example 2-187, (2-[(12-cyclohexyl-6,7-dihydro-5-oxa-7a-azadibenzo[a,e]azulene-9-carbonyl)amino]-2-methylpropylamino)acetic acid] gave a pIC50 of 6.00 to 7.00.

As for `O=C(O)c1ccc2c(C3CCCCC3)c3n(c2c1)CCN(CCN1CCCOCC1)c1cc(F)c(F)cc1-3` [Example 1-550, 13-cyclohexyl-2,3-difluoro-5-[2-(1,4-oxazepan-4-yl)ethyl]-6,7-dihydro-5H-benzo[5,6][1,4]diazepino[7,1-a]indole-10-carboxylic acid dihydrochloride], the pIC50 is > 7.00. For the compound `CSc1ccc2c(c1)N(CCN1CCCC1)CCn1c-2c(C2CCCCC2)c2ccc(C(=O)O)cc21` [Example 1-303, 13-cyclohexyl-3-methylsulfanyl-5-[2-(pyrrolidin-1-yl)ethyl]-6,7-dihydro-5H-benzo[5,6][1,4]diazepino[7,1-a]indole-10-carboxylic acid dihydrochloride], the pIC50 is > 7.00. As for `CC(C)(COc1ccc(N2CCCC2=O)cc1)NC(=O)c1ccc2c(C3CCCCC3)c3n(c2c1)CCOc1ccccc1-3` [Example 2-226, N-{1,1-dimethyl-2-[4-(2-oxopyrrolidin-1-yl)phenoxy]ethyl}-12-cyclohexyl-6,7-dihydro-5-oxa-7a-azadibenzo[a,e]azulene-9-carboxamide], the pIC50 was > 7.00.

Turning to `CCN(CC)CC(O)CN1CCn2c(c(C3CCCCC3)c3ccc(C(=O)O)cc32)-c2ccc(Cl)cc21` (centres unmarked) [Example 1-503, 3-chloro-13-cyclohexyl-5-(3-diethylamino-2-hydroxypropyl)-6,7-dihydro-5H-benzo[5,6][1,4]diazepino[7,1-a]indole-10-carboxylic acid dihydrochloride], the pIC50 was > 7.00. On to `O=C(O)c1ccc2c(C3CCCC3)c3n(c2c1)CCN(CCN1CCCCC1)c1ccccc1-3` [Example 1-399, 13-cyclopentyl-5-[2-(piperidin-1-yl)ethyl]-6,7-dihydro-5H-benzo[5,6][1,4]diazepino[7,1-a]indole-10-carboxylic acid monohydrochloride], for which the negative-log IC50 (pIC50) was > 7.00.

Regarding `O=C(O)c1ccc2c(C3CCCCC3)c3n(c2c1)CCOc1c(OCCN2CCCCC2)cccc1-3` [Example 2-53, 12-cyclohexyl-4-[2-(piperidin-1-yl)ethoxy]-6,7-dihydro-5-oxa-7a-azadibenzo[a,e]azulene-9-carboxylic acid hydrochloride], the pIC50 was > 7.00.

The record behind these values is US20070049593A1 (priority 2004, published 2007).
